According to US6838236B1, “VPR function and activity” (priority 1993, dated 2005):

Tests used:
HIV-1 p24^gag antigen = experiment: HIV-1 p24gag antigen production, antigen-capture ELISA of culture medium; assay type: cell-based
[1] = system: human rhabdomyosarcoma cell line TE671; details: well-described phenomenon; cited from earlier work
[2] = system: TE671 rhabdomyosarcoma cells; experiment: Biological activity of baculovirus vpr supernatant on TE671 cells; assay type: cell-based, human
Text: Recombinant vpr protein can be tested for biological activity in tissue culture. Vpr and control supernatants were dialyzed against PBS and applied to TE671 rhabdomyosarcoma cells. TE671 cells differentiate and cease to proliferate when transfected with the vpr gene or infected with HIV (Gras-Masse et al., supra; Levy et al., supra). […] Cells exposed to vpr for 3 days were examined for the presence of adult muscle myosin, a differentiation marker for these cells (Aguanno et al., Cancer Res., 1990, 50, 3377).

OM-10.1 cells = experiment: Intracellular p24 fluorescence in OM-10.1 cells; assay type: cell-based; details: vpr supernatant versus control supernatant
Procedure: In other experiments, OM-10.1 cells, which are T lymphoid in origin, were treated with either control supernatant lacking vpr or vpr supernatant from baculovirus-infected cells. Cells are shown in visible light and stained for intracellular p24 detected by fluorescence microscopy. The intensity of fluorescence is a measure of the virus expression.

[3] = continuous exposure to 20% vpr supernatant

| Compound | increase in p24 release (HIV-1 p24^gag antigen; pNLpuroΔvpr-transfected cells exposed to phorbol ester) [fold] | p24 release (HIV-1 p24^gag antigen; undifferentiated pNLpuro-transfected cells exposed to phorbol ester) | morphology and growth of stimulated TE671 cells [1] | time to cessation of proliferation [2, 3] | time to morphological differentiation [2, 3] | effect on cell survival ([2]; exposure to greater than 20% supernatant) | retrovirus expression, intracellular p24 fluorescence (OM-10.1 cells) |
| --- | --- | --- | --- | --- | --- | --- | --- |
| CCCCCCCCCCCCCC(=O)O[C@@H]1[C@@H](C)[C@@]2(O)[C@@H](C=C(CO)C[C@]3(O)C(=O)C(C)=C[C@@H]23)[C@@H]2C(C)(C)[C@]12OC(C)=O [phorbol myristate acetate] | 3 | no measurable p24 release | increase in overall size and length, are often multinucleated, and display slowed proliferation | – | – | – | – |
| vpr protein: HIV-1 viral protein R produced in baculovirus-infected insect cells, used as supernatant or partially purified | – | – | – | approximately 3 days | 7-9 days | rapidly fatal | induces a high level of retrovirus expression |
